The subject of one test is CT-26 cells. As to the kind of experiment: Anti-tumor response in CT-26 tumor-bearing mice. Type of test: in vivo, BALB/cAnN mice.
The subject of another test is RENCA cells. Kind of test: Anti-tumor response in RENCA tumor-bearing mice.

This note sets out measurements from patent US20180044418A1, “COMBINATION OF A PD-1 ANTAGONIST AND VORINOSTAT FOR TREATING CANCER” (Merck Sharp & Dohme Corp., priority 2016, published 2018).

Source text for CT-26 cells: (§1) This experiment compared the anti-tumor response of tumor-bearing mice to treatment with one of three regimens: monotherapy with a murine anti-mouse PD-1 monoclonal antibody (anti-PD-1), monotherapy with Vorinostat and combination therapy with these two agents administered concurrently.
Tumor-bearing mice for this study were initiated by implanting 3×10^5 log-phase and sub-confluent CT-26 cells on the right lower dorsal flank of 7-8 week old female BALB/cAnN mice with an average body weight of 18 grams. When the mean tumor volume in these mice reached ˜100 cubic mm (60mm^3-150 mm^3) (FIG. 1(A)), the tumor-bearing mice were randomized to 4 treatment groups of 12 mice per group: (1) Isotype control+Vehicle control group;(2) anti-PD-1 +Vehicle control; (3) Vorinostat +Isotype control and; (4) anti-PD-1+Vorinostat. A monoclonal antibody of murine isotype IgG1 against murine PD-1 and isotype control were obtained from internal sources. The isotype control was a mouse monoclonal antibody specific for adenoviral hexon 25 and was of the isotype IgG1. […] Anti-PD-1 was administered to treatment groups 2 and 4 at 10 mg/kg i.p. every 5 days for each of 5 cycles. Vorinostat was administered to treatment groups 3 and 4 at 150 mg/kg every day for 27 days.
Source text for RENCA cells: as §1
Tumor-bearing mice for this study were initiated by implanting 1×10^6 log-phase and sub-confluent RENCA cells on the right lower dorsal flank of 7-8 week old female BALB/cmice with an average body weight of 19 grams. When the mean tumor volume in these mice reached ˜100 cubic mm (65mm^3-140 mm^3) (FIG. 9(A)), the tumor-bearing mice were randomized to 4 treatment groups of 12 mice per group: (1) Isotype control +Vehicle control group;(2) Anti-PD-1 +Vehicle control; (3) Vorinostat+Isotype control and; (4) Anti-PD-1 +Vorinostat. A monoclonal antibody of murine isotype IgG1 against murine PD-1 and isotype control were obtained from internal sources. The isotype control was a mouse monoclonal antibody specific for adenoviral hexon 25 and was of the isotype IgG1. The formulations for each reagent was as follows: Isotype contro1:75 mM NaCl, 10 mM sodium phosphate, 3% sucrose, pH7.3; anti-PD-1: 20 mM sodium acetate, 7% sucrose, pH5.5; and Vorinostat vehicle: 0.5% HPC (hydroxypropylcellulose) with 0.002% SDS (sodium dodecyl sulfate) in sterile water. Anti-PD-1 was administered to treatment groups 2 and 4 at 5 mg/kg i.p. every 5 days for each of 5 cycles. Vorinostat was administered to treatment groups 3 and 4 at 150 mg/kg every day for 29 days.

As for `O=C(CCCCCCC(=O)Nc1ccccc1)NO` [Vorinostat, suberoylanilide hydroxamic acid], the “effect of Vorinostat on anti-PD-1 anti-tumor activity in the combination treatment arm” value in the test with CT-26 cells and in the test with RENCA cells was “did not demonstrate antagonistic effects” throughout. Besides, the “complete regressions (CR)” value in the test with CT-26 cells (12 per group, measured through Day 29, anti-PD-1 10 mg/kg i.p. every 5 days x5, Vorinostat 150 mg/kg every day for 27 days) is reported as “No CRs”. Moreover, the survival with CT-26 cells (at Day 30, FIG. 8(B)) is listed as 10%; with RENCA cells (at Day 30, FIG. 9(B)), 23%. Besides, the “complete regressions (CRs)” value in the test with RENCA cells (monotherapy arms, measured through Day 29) was “No CRs”.
